molecular target: T1, EGFR (L858R & T790M) (Homo sapiens, UniProt P00533, L858R/T790M); assay: EGFR (L858R & T790M) inhibition assay, HTRF method; details: biochemical HTRF; EGFR (T790M/L858R) 2.5 nM, ATP 5 μM, 60 min room temperature
T1 construct: GST; purchased Proqinase
Experimental: Example 25: Biological Activity: EGFR T790M Assay Protocol
The objective of the experiment is to find the IC50 for the compounds using HTRF method.
Reagents for Enzyme Assay:
1. Enzyme Assay Buffer: 60 mM HEPES (pH 7.4), 50 mM NaCl, 20 mM MgCl2, 5 mM MnCl2, filter using 0.2 µm pore size, store at 4° C.
Supplements (add fresh to the enzyme buffer): Make 1M DTT stock, 5% BSA stock and 0.1M Na3OV4 stored at 4° C. Enzyme assay buffer 50 ml, 1 M DTT 100 μl, 5% BSA 500 μl, 0.1M Na3OV4 50 μl.
2. GST-hEGFR (L858R), active: EGFR (T790M/L858R), active (Proqinase), 3.6 μM stock; 2.5 nM in final assay.
3. Gastrin Precusor-Biotinylated: Gastrin precursor (Tyr87) biotinylated peptide (EEAY*GWM), Cell Signaling Tech 1310, Lot-7, Want final 0.5 μM in assay
4. ATP: 10 mM stock in 100 μl Enzyme assay buffer pH 7.4 prepared freshly, want 5 μM in final assay.
5. Test compounds: Dissolve powders in 100% DMSO to a final stock concentration of 10 mM (volume in μL to add for 10 mM=mg powder×10^5/MW). Final comp concentration in the assay plate is starting at 10 μM.
1. HTRF buffer: 50 mM Tris-HCl, pH-7.5, 100 mM NaCl, 0.1% BSA, 0.05% Tween20, 0.5 mM EDTA, filter using 0.2 µm pore size, store at 4° C.
Phycolink® Streptavidin-Allophycocyanin (SA-APC) Prozyme, Cat. #PJ25S, Lot #896 085, 2.06 mg/mL, APC concentration is 11.6 μM, streptavidin concentration is 15.5 μM. Want 12 nM final in assay (based on streptavidin concentration).
2. Europium-W1024-PT-66 Anti Phospho Tyrosine Antibody: Perkin Elmer (AD0068), monoclonal IgG1 that recognizes phospho tyrosine peptide 100 μg/ml stock. Want 0.1 nM final in assay.
• 1. Make the compound dilution by TECAN as per the above scheme. • 2. Add 16 μl of diluted compound to the assay plate by using TECAN • 3. Add 10 μl of enzyme mix to each well except mins. • 4. Add 20 μl of substrate and ATP mix into each well of the assay plate manually. • 5. Incubate the plate at room temperature for 60 min with shaking. • 6. Meanwhile prepare the HTRF mix and add 75 μl to the HTRF plate. • 7. When the incubation is over, transfer 10 μl of the reaction mixture to the HTRF assay plate and incubate for 30 min at room temperature with shaking. • 8. Take the reading in Pherastar (ext 337 nm, em 665 & 620 nm). • 9. Analyze the results using Graphpad prism after calculation the z factor, signal window and % inhibition to get the IC50.
Compounds having IC50<10 nM are designated as “A”; 10-100 nM are designated as “B”; and >100 nM as “C”.

T1 sequence (P00533 25-1210 T790M/L858R): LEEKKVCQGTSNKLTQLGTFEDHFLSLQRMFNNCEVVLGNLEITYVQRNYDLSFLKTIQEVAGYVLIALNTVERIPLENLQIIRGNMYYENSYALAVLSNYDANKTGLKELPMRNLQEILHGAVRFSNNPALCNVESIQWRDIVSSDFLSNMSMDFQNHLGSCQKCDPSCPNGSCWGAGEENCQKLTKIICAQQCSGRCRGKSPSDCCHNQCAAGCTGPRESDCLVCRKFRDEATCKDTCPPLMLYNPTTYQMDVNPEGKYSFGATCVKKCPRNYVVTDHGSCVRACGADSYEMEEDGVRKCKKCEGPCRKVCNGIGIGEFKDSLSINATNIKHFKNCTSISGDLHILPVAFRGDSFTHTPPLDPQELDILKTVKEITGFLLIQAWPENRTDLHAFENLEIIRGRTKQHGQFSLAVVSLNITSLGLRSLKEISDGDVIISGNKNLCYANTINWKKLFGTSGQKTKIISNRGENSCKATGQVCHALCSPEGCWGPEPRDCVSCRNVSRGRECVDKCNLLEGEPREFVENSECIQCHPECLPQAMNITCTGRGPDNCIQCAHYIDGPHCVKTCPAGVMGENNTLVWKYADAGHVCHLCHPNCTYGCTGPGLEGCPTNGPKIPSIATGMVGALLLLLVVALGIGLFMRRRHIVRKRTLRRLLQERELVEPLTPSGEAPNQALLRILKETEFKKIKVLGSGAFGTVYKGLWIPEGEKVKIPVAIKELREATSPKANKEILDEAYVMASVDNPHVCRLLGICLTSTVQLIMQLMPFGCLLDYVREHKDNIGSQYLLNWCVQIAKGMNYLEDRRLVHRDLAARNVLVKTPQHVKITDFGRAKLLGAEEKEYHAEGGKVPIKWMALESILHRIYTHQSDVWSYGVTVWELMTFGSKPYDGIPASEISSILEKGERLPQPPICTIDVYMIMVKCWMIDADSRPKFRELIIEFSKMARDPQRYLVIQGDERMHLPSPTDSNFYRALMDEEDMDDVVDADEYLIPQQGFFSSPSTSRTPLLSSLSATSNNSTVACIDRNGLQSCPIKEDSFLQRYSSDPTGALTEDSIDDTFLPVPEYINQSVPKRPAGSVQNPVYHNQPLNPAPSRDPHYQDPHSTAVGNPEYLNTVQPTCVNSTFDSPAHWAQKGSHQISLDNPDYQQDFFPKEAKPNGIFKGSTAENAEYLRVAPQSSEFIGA

| SMILES | IC50 [µM] |
| --- | --- |
| C=CC(=O)Nc1cccc(C(C)Nc2nc(Nc3cnn(C)c3)ncc2Cl)c1 (stereo not shown) [Compound I-56, N-(3-(1-((5-chloro-2-((1-methyl-1H-pyrazol-4-yl)amino)pyrimidin-4-yl)amino)ethyl)phenyl)acrylamide] | > 0.1 |
| C=CC(=O)NC1CCC(Nc2nc(Nc3cnn(C)c3)ncc2Cl)CC1 (stereo not shown) [Compound I-94, N-(4-((5-chloro-2-((1-methyl-1H-pyrazol-4-yl)amino)pyrimidin-4-yl)amino)cyclohexyl)acrylamide] | > 0.1 |
| C=CC(=O)N1CCCC(Nc2nc(Nc3cnn(C4CCC4)c3)ncc2Cl)C1 (single isomer, unassigned) [II-6 (Enantiomer 2), 1-(3-((5-chloro-2-((1-cyclobutyl-1H-pyrazol-4-yl)amino)pyrimidin-4-yl)amino)piperidin-1-yl)prop-2-en-1-one] | > 0.1 |
| C=C(C)C(=O)Nc1cccc(Nc2nc(Nc3cnn(C4CCN(C)CC4)c3)ncc2Cl)c1 [Compound I-9, N-(3-((5-chloro-2-((1-(1-methylpiperidin-4-yl)-1H-pyrazol-4-yl)amino)pyrimidin-4-yl)amino)phenyl)methacrylamide] | > 0.1 |
| C=CC(=O)Nc1cccc(Nc2nc(Nc3c(C)nn(C)c3C)ncc2Cl)c1 [Compound I-11, N-(3-((5-chloro-2-((1,3,5-trimethyl-1H-pyrazol-4-yl)amino)pyrimidin-4-yl)amino)phenyl)acrylamide] | > 0.1 |
| Cc1cc(Nc2ncc(Cl)c(NC3CCCC(NC(=O)/C=C/CN(C)C)C3)n2)sn1 (stereo not shown) [Compound I-115, (E)-N-(3-((5-chloro-2-((3-methylisothiazol-5-yl)amino)pyrimidin-4-yl)amino)cyclohexyl)-4-(dimethylamino)but-2-enamide] | > 0.1 |
| C=CC(=O)Nc1ccc(OC2CCOC2)c(Nc2nc(Nc3cnn(C)c3)ncc2Cl)c1 (stereo not shown) [Compound I-54, N-(3-((5-chloro-2-((1-methyl-1H-pyrazol-4-yl)amino)pyrimidin-4-yl)amino)-4-((tetrahydrofuran-3-yl)oxy)phenyl)acrylamide] | > 0.1 |
| C=CC(=O)N1CCC(Nc2nc(Nc3cnn(C)c3)ncc2Cl)CC1 [II-8, 1-(4-((5-chloro-2-((1-methyl-1H-pyrazol-4-yl)amino)pyrimidin-4-yl)amino)piperidin-1-yl)prop-2-en-1-one] | > 0.1 |
| C=CC(=O)NC1CCCC(Nc2nc(Nc3cc(Cl)n(C)n3)ncc2Cl)C1 (stereo not shown) [Compound I-97, N-(3-((5-chloro-2-((5-chloro-1-methyl-1H-pyrazol-3-yl)amino)pyrimidin-4-yl)amino)cyclohexyl)acrylamide] | > 0.1 |
| C=CC(=O)Nc1cccc(Nc2nc(Nc3cnn(CC(C)(C)O)c3)ncc2Cl)c1 [Compound I-17, N-(3-((5-chloro-2-((1-(2-hydroxy-2-methylpropyl)-1H-pyrazol-4-yl)amino)pyrimidin-4-yl)amino)phenyl)acrylamide] | > 0.1 |
| C=CC(=O)N(C)c1ccc(F)c(Nc2nc(Nc3cnn(C)c3)ncc2Cl)c1 [Compound I-110, N-(3-((5-chloro-2-((1-methyl-1H-pyrazol-4-yl)amino)pyrimidin-4-yl)amino)-4-fluorophenyl)-N-methylacrylamide] | > 0.1 |
| C=CC(=O)N1CCC(Oc2nc(Nc3cnn(C)c3)ncc2Cl)C1 (single isomer, unassigned) [II-10 (Enantiomer 1), 1-(3-((5-chloro-2-((1-methyl-1H-pyrazol-4-yl)amino)pyrimidin-4-yl)oxy)pyrrolidin-1-yl)prop-2-en-1-one] | > 0.1 |
| CN1CCC(n2cc(Nc3ncc(Cl)c(Nc4cccc(NC(=O)C=C5CCCC5)c4)n3)cn2)CC1 [Compound I-30, N-(3-((5-chloro-2-((1-(1-methylpiperidin-4-yl)-1H-pyrazol-4-yl)amino)pyrimidin-4-yl)amino)phenyl)-2-cyclopentylideneacetamide] | > 0.1 |
| CC(Nc1nc(Nc2cnn(C)c2)ncc1Cl)c1cccc(NC(=O)/C=C/CN(C)C)c1 (stereo not shown) [Compound I-57, (E)-N-(3-(1-((5-chloro-2-((1-methyl-1H-pyrazol-4-yl)amino)pyrimidin-4-yl)amino)ethyl)phenyl)-4-(dimethylamino)but-2-enamide] | > 0.1 |

Other lines, results leading:

| IC50 [µM] | SMILES |
| --- | --- |
| > 0.1 | C=CC(=O)Nc1cccc(Oc2nc(Nc3c(C)nn(C)c3C)ncc2Cl)c1 [Compound I-84, N-(3-((5-chloro-2-((1,3,5-trimethyl-1H-pyrazol-4-yl)amino)pyrimidin-4-yl)oxy)phenyl)acrylamide] |
| 0.01 to 0.1 | C=CC(=O)NC1CCCC(Nc2nc(Nc3cnn(C)c3)ncc2Cl)C1 (stereo not shown) [Compound I-92, N-(3-((5-chloro-2-((1-methyl-1H-pyrazol-4-yl)amino)pyrimidin-4-yl)amino)cyclohexyl)acrylamide] |
| 0.01 to 0.1 | C=CC(=O)Nc1cccc(Nc2nc(Nc3cnn(C4CCN(C)CC4)c3)ncc2OC)c1 [Compound I-12, N-(3-((5-methoxy-2-((1-(1-methylpiperidin-4-yl)-1H-pyrazol-4-yl)amino)pyrimidin-4-yl)amino)phenyl)acrylamide] |
| 0.01 to 0.1 | C=CC(=O)Nc1cccc(Nc2nc(Nc3cnn(C4CCC(O)C4)c3)ncc2Cl)c1 (stereo not shown) [Compound I-36, N-(3-((5-chloro-2-((1-(3-hydroxycyclopentyl)-1H-pyrazol-4-yl)amino)pyrimidin-4-yl)amino)phenyl)acrylamide] |
| < 0.01 | C=CC(=O)Nc1ccc(F)c(N(C)c2nc(Nc3cnn(C)c3)ncc2Cl)c1 [Compound I-111, N-(3-((5-chloro-2-((1-methyl-1H-pyrazol-4-yl)amino)pyrimidin-4-yl)(methyl)amino)-4-fluorophenyl)acrylamide] |
| 0.01 to 0.1 | C=CC(=O)NC1CCCC(Nc2nc(Nc3cc(C)ns3)ncc2Cl)C1 (stereo not shown) [Compound I-114, N-(3-((5-chloro-2-((3-methylisothiazol-5-yl)amino)pyrimidin-4-yl)amino)cyclohexyl)acrylamide] |
| 0.01 to 0.1 | C=CC(=O)Nc1ccc(F)c(Nc2nc(Nc3cc(C)no3)ncc2Cl)c1 [Compound I-118, N-(3-((5-chloro-2-((3-methylisoxazol-5-yl)amino)pyrimidin-4-yl)amino)-4-fluorophenyl)acrylamide] |
| 0.01 to 0.1 | C=CC(=O)Nc1cccc(Oc2nc(Nc3cnn(CCN(C)C)c3)ncc2Cl)c1 [Compound I-80, N-(3-((5-chloro-2-((1-(2-(dimethylamino)ethyl)-1H-pyrazol-4-yl)amino)pyrimidin-4-yl)oxy)phenyl)acrylamide] |
| < 0.01 | C=CC(=O)Nc1cccc(Nc2nc(Nc3cn(C)nc3C)ncc2Cl)c1 [Compound I-34, N-(3-((5-chloro-2-((1,3-dimethyl-1H-pyrazol-4-yl)amino)pyrimidin-4-yl)amino)phenyl)acrylamide] |
| 0.01 to 0.1 | C=CC(=O)Nc1cccc(Nc2nc(Nc3cnn(C(C)C)c3)ncc2Cl)c1 [Compound I-4, N-(3-((5-chloro-2-((1-isopropyl-1H-pyrazol-4-yl)amino)pyrimidin-4-yl)amino)phenyl)acrylamide] |
| 0.01 to 0.1 | C=CC(=O)Nc1cccc(Nc2nc(Nc3cn(C)cn3)ncc2Cl)c1 [Compound I-60, N-(3-((5-chloro-2-((1-methyl-1H-imidazol-4-yl)amino)pyrimidin-4-yl)amino)phenyl)acrylamide] |
| 0.01 to 0.1 | C=CC(=O)Nc1ccc(F)c(Nc2nc(Nc3cnn(C)c3C)ncc2Cl)c1 [Compound I-71, N-(3-((5-chloro-2-((1,5-dimethyl-1H-pyrazol-4-yl)amino)pyrimidin-4-yl)amino)-4-fluorophenyl)acrylamide] |
| 0.01 to 0.1 | C=CC(=O)Nc1cccc(Nc2nc(Nc3cnn(CCOC)c3)ncc2Cl)c1 [Compound I-20, N-(3-((5-chloro-2-((1-(2-methoxyethyl)-1H-pyrazol-4-yl)amino)pyrimidin-4-yl)amino)phenyl)acrylamide] |
| 0.01 to 0.1 | C=CC(=O)Nc1cccc(Nc2nc(Nc3cnn(CCN(C)C)c3)ncc2Cl)c1 [Compound I-5, N-(3-((5-chloro-2-((1-(2-(dimethylamino)ethyl)-1H-pyrazol-4-yl)amino)pyrimidin-4-yl)amino)phenyl)acrylamide] |
